Results published in patent US6326034A, “Natural extracted and synthetic antioxidant compositions” (priority 1999, dated 2001).

Legend:
[1] = β-carotene test (coupled oxidation of β-carotene and linoleic acid), in vitro; conditions: β Carotene test; for antioxidant activity (in words): chromium compounds and their reactants; for EC50 for antioxidant activity of chromium compounds: Table 6
Protocol: Evaluation of antioxidant activity is based on coupled oxidation of β-carotene and linoleic acid. The technique consists of measuring the consumption of β-carotene as a result of its oxidation process in the reaction mixture. The β-carotene-linoleic acid method has been reported as an efficient technique to detect and evaluate antioxidants from plants and from other sources by several investigation groups. Ten milligram of β-carotene were dissolved in 10 ml chloroform and 0.6 ml of the solution was added to a round flask that contained 20 mg of linoleic acid and 200 mg of Tween 20. Chloroform was removed by evaporation, and 50 ml of distilled water were slowly added to the flask with vigorous agitation to form an emulsion. Two milliliters of the emulsion were added to 1 ml of the examined antioxidant solution. The tubes were placed in a water bath at 50° C. and absorbance measurements were made at 30 minutes intervals [M. S. Taga et al., J. Am. Oil Chem. Soc. 61: 928-931, 1984]. […]

[2] = FRAP assay (ferric reducing/antioxidant power), in vitro

Molecule	antioxidant activity (in words) [1]	EC50 for antioxidant activity of chromium compounds [1]	further results
O=S(=O)([O-])[O-].O=S(=O)([O-])[O-].O=S(=O)([O-])[O-].[Cr+3].[Cr+3] [Cr2(SO4)3, chromium sulfate, reference compound]	relatively much lower antioxidant effect		
CC(=O)N[C@@H](CS)C(=O)O [NAC, N-acetyl cysteine, reference compound]	lower activity		
N[C@@H](CS)C(=O)O [Cysteine, cysteine, reference compound]	no antioxidant activity		
[Cl][Cr]([Cl])[Cl] [CrCl3, chromium chloride, reference compound]	relatively much lower antioxidant effect	7.2 × 10^-4 mg Cr/ml	antioxidant activity (in words) ([2]; chromium compounds, FRAP, all concentrations used): inactive
N[C@@H](CCC(=O)N[C@@H](CS)C(=O)NCC(=O)O)C(=O)O [Glutathione, glutathione, reference compound]	lower activity		
Chromium N-Acetyl Cysteine [Cr-NAC]	dose dependent antioxidant activity	2.7 × 10^-7 mg Cr/ml	
CC(=O)[O-].CC(=O)[O-].CC(=O)[O-].[Cr+3] [Cr Acetate, chromium acetate, reference compound]	lacks any antioxidant activity		
Chromium-Glutathione [Cr-GSH]	dose dependent antioxidant activity	2.7 × 10^-7 mg Cr/ml	
Chromium Cysteine [Cr-Cys]	the most active complex	7.8 × 10^-8 mg Cr/ml	antioxidant activity (in words) ([1]; listed as Cr-cysteine): dose dependent antioxidant activity; fold more active than cysteine ([2]; at equal concentrations of cysteine, FIG. 27): 2.5 fold
Chromium-Cystine	did not show any antioxidant activity		
